Entries after “also recorded” stand apart in the source; their conditions may differ. Read-outs that look alike come from different tables or passages of the source.
How the values were obtained:
KM12 = assay: NCI SRB screen, KM12; conditions: Homo sapiens, KM12, 48 h, read-out: GI50 values
U251 = assay: NCI SRB screen, U251; conditions: Homo sapiens, U-251, 48 h, read-out: GI50 values
PC-3 = assay: NCI SRB screen, PC-3; conditions: Homo sapiens, PC-3, 48 h, read-out: GI50 values
K-562 = assay: NCI SRB screen, K-562; conditions: Homo sapiens, K562, 48 h, read-out: GI50 values
SN12C = assay: NCI SRB screen, SN12C; conditions: Homo sapiens, 48 h, read-out: GI50 values
UO-31 = assay: NCI SRB screen, UO-31; conditions: Homo sapiens, UO-31, 48 h, read-out: GI50 values
T-47D = assay: NCI SRB screen, T-47D; conditions: Homo sapiens, T47D, 48 h, read-out: GI50 values
MOLT-4 = assay: NCI SRB screen, MOLT-4; conditions: Homo sapiens, MOLT-4, 48 h, read-out: GI50 values
HOP-62 = assay: NCI SRB screen, HOP-62; conditions: Homo sapiens, HOP-62, 48 h, read-out: GI50 values
SF-295 = assay: NCI SRB screen, SF-295; conditions: Homo sapiens, SF-295, 48 h, read-out: GI50 values
SF-539 = assay: NCI SRB screen, SF-539; conditions: Homo sapiens, 48 h, read-out: GI50 values
SNB-75 = assay: NCI SRB screen, SNB-75; conditions: Homo sapiens, SNB-75, 48 h, read-out: GI50 values
IGROV1 = assay: NCI SRB screen, IGROV1; conditions: Homo sapiens, IGROV-1, 48 h, read-out: GI50 values
HCT-116 = assay: NCI SRB screen, HCT-116; conditions: Homo sapiens, HCT-116, 48 h, read-out: GI50 values
UACC-62 = assay: NCI SRB screen, UACC-62; conditions: Homo sapiens, UACC-62, 48 h, read-out: GI50 values
OVCAR-3 = assay: NCI SRB screen, OVCAR-3; conditions: Homo sapiens, OVCAR-3, 48 h, read-out: GI50 values
OVCAR-4 = assay: NCI SRB screen, OVCAR-4; conditions: Homo sapiens, OVCAR-4, 48 h, read-out: GI50 values
OVCAR-5 = assay: NCI SRB screen, OVCAR-5; conditions: Homo sapiens, OVCAR-5, 48 h, read-out: GI50 values
RXF 393 = assay: NCI SRB screen, RXF 393; conditions: Homo sapiens, RXF 393, 48 h, read-out: GI50 values
HS 578T = assay: NCI SRB screen, HS 578T; conditions: Homo sapiens, 48 h, read-out: GI50 values
CCRF-CEM = assay: NCI SRB screen, CCRF-CEM; conditions: Homo sapiens, 48 h, read-out: GI50 values
NCI-H226 = assay: NCI SRB screen, NCI-H226; conditions: Homo sapiens, NCI-H226, 48 h, read-out: GI50 values
NCIH322M = assay: NCI SRB screen, NCIH322M; conditions: Homo sapiens, NCI-H322M, 48 h, read-out: GI50 values
COLO-205 = assay: NCI SRB screen, COLO-205; conditions: Homo sapiens, COLO 205, 48 h, read-out: GI50 values
MALME-3M = assay: NCI SRB screen, MALME-3M; conditions: Homo sapiens, 48 h, read-out: GI50 values
A549/ATCC = assay: NCI SRB screen, A549/ATCC; conditions: Homo sapiens, A549, 48 h, read-out: GI50 values
CNS cancer cell lines = assay: NCI SRB screen, CNS panel average; conditions: Homo sapiens, 48 h, read-out: Log10 GI50 (converted)
Colon cancer cell lines = assay: NCI SRB screen, Colon panel average; conditions: Homo sapiens, 48 h, read-out: Log10 GI50 (converted)
Renal cancer cell lines = assay: NCI SRB screen, Renal panel average; conditions: Homo sapiens, 48 h, read-out: Log10 GI50 (converted)
Leukemia cell lines = assay: NCI SRB screen, Leukemia panel average; conditions: Homo sapiens, 48 h, read-out: Log10 GI50 (converted)
[1] = test system: Prostate cancer cell lines; assay: NCI SRB screen, Prostate panel average; conditions: Homo sapiens, 48 h, read-out: Log10 GI50 (converted)
Breast Cancer cell lines = assay: NCI SRB screen, Breast Cancer panel average; conditions: Homo sapiens, 48 h, read-out: Log10 GI50 (converted)
[2] = test system: fifty six human tumor cell lines; assay: NCI human tumor cell line screen (48 h, SRB), all cell lines; conditions: for GI50: Homo sapiens

`COc1cc(-c2cc(-c3nc4cc(Cl)c(Cl)cc4[nH]3)[nH]n2)cc(OC)c1OC` [10f, 5,6-dichloro-2-(3-(3,4,5-trimethoxyphenyl)-1H-pyrazol-5-yl)-1H-benzo[d]imidazole] was tested, and the GI50 (KM12) was 3.56 µM, the GI50 (U251) was 2.97 µM and the GI50 (PC-3) was 2.2 µM. It also gave a GI50 (K-562) of 3.3 µM, a GI50 (SN12C) of 3.05 µM and a GI50 (UO-31) of 2.47 µM. It also gave a GI50 (T-47D) of 1.87 µM, a GI50 (MOLT-4) of 2.49 µM and a GI50 (HOP-62) of 3.43 µM. The GI50 (SF-295) was 3.04 µM, the GI50 (SF-539) was 3.28 µM and the GI50 (SNB-75) was 3.12 µM. It also gave a GI50 (IGROV1) of 3.86 µM, a GI50 (HCT-116) of 2.78 µM and a GI50 (UACC-62) of 1.94 µM. The GI50 (OVCAR-3) was 4.05 µM, the GI50 (OVCAR-4) was 2.21 µM and the GI50 (OVCAR-5) was 7.08 µM. It also gave a GI50 (RXF 393) of 3.17 µM, a GI50 (HS 578T) of 4.53 µM and a GI50 (CCRF-CEM) of 2.35 µM. For the same compound, the GI50 (NCI-H226) was 2.29 µM, the GI50 (NCIH322M) was 3.29 µM and the GI50 (COLO-205) was 3.77 µM. For the same compound, the GI50 (MALME-3M) was 2.7 µM, the GI50 (A549/ATCC) was 2.87 µM and the GI50 (CNS cancer cell lines) was 3.55 µM. For the same compound, the GI50 (Colon cancer cell lines) was 3.63 µM, the GI50 (Renal cancer cell lines) was 3.55 µM and the GI50 (Leukemia cell lines) was 2.75 µM. It also gave a GI50 [1] of 3.02 µM, a GI50 (Breast Cancer cell lines) of 3.16 µM and a GI50 ([2]; read-out: GI50 value range) of 0.34 to 10 µM. For the same compound, the GI50 ([2]; read-out: Log10 GI50 mean graph midpoint (MG_MID) (converted)) was 3.31 µM, the “anticancer activity (in words)” value ([2]; human cancer cell lines of the NCI panel) was “significant anticancer activity; also recorded: pronounced activities” and the “Log10 TGI mean graph midpoint (MG_MID)” value ([2]; human tumor cell lines, mean over the panel, total growth inhibition) was −4.88.

From patent publication US9951049B2, “Pyrazole linked benzimidazole conjugates and a process for preparation thereof” (Council of Scientific & Industrial Reseach, priority 2014, dated 2018)
